We go through 20 molecules from article PMC4061985 (Journal of immunology (Baltimore, Md. : 1950), 2009).

Residues, ends and D or L forms follow the SMILES beside them.

The Kd is the free concentration of one partner at which half of the binding sites on the other are occupied at equilibrium, for simple one-to-one binding.

In the assay the target is HLA-DR0901 protein (Homo sapiens, UniProt P01903+P01911, A100R/A103E/D57H/D86V/F55Y/F60I/F76Y/I96F/K127E/L162R/M171V/P40D/Q125H/Q99R/R33Q/R42F/S133A/S66N/T210M/V115G/W38K/Y107V/Y59G/Y89S). The assay can be described thus: Peptide binding competition assay, DR0901.
Regarding `CC[C@H](C)[C@H](NC(=O)[C@H](CCCCN)NC(=O)[C@H](CO)NC(=O)[C@H](CC(C)C)NC(=O)[C@H](CO)NC(=O)[C@H](Cc1ccc(O)cc1)NC(=O)[C@H](CC(N)=O)NC(=O)[C@H](Cc1ccccc1)NC(=O)[C@H](CC(N)=O)NC(=O)[C@@H](N)CC(C)C)C(=O)N[C@H](C(=O)N[C@H](C(=O)N[C@@H](CC(=O)O)C(=O)O)C(C)C)[C@@H](C)CC` [LNFNYSLSKIIVD] (H-LNFNYSLSKIIVD-OH), the Kd stood at 31 ± 3 nM.
The molecule `CC[C@H](C)[C@H](NC(=O)[C@H](Cc1c[nH]cn1)NC(=O)[C@H](CC(=O)O)NC(=O)[C@H](CC(C)C)NC(=O)[C@H](CO)NC(=O)[C@H](Cc1ccc(O)cc1)NC(=O)[C@H](CC(N)=O)NC(=O)[C@H](Cc1ccccc1)NC(=O)[C@H](CC(N)=O)NC(=O)[C@@H](N)CC(C)C)C(=O)N[C@H](C(=O)N[C@H](C(=O)N[C@@H](CC(=O)O)C(=O)O)C(C)C)[C@@H](C)CC` [LNFNYSLDHIIVD] (H-LNFNYSLDHIIVD-OH) yielded a Kd of 29 ± 9 nM.
On to `CC[C@H](C)[C@H](NC(=O)[C@H](CCCNC(=N)N)NC(=O)[C@H](CC(=O)O)NC(=O)[C@H](CC(C)C)NC(=O)[C@H](CO)NC(=O)[C@H](Cc1ccc(O)cc1)NC(=O)[C@H](CC(N)=O)NC(=O)[C@H](Cc1ccccc1)NC(=O)[C@H](CC(N)=O)NC(=O)[C@@H](N)CC(C)C)C(=O)N[C@H](C(=O)N[C@H](C(=O)N[C@@H](CC(=O)O)C(=O)O)C(C)C)[C@@H](C)CC` [LNFNYSLDRIIVD] (H-LNFNYSLDRIIVD-OH), for which binding was put at a Kd of 53 ± 10 nM.
The molecule `CC[C@H](C)[C@H](NC(=O)[C@H](CCSC)NC(=O)[C@H](CC(=O)O)NC(=O)[C@H](CC(C)C)NC(=O)[C@H](CO)NC(=O)[C@H](Cc1ccc(O)cc1)NC(=O)[C@H](CC(N)=O)NC(=O)[C@H](Cc1ccccc1)NC(=O)[C@H](CC(N)=O)NC(=O)[C@@H](N)CC(C)C)C(=O)N[C@H](C(=O)N[C@H](C(=O)N[C@@H](CC(=O)O)C(=O)O)C(C)C)[C@@H](C)CC` [LNFNYSLDMIIVD] (H-LNFNYSLDMIIVD-OH) registered a dissociation constant Kd of 24 ± 5 nM.
`CC[C@H](C)[C@H](NC(=O)[C@H](CCCCN)NC(=O)[C@H](CC(=O)O)NC(=O)[C@H](CC(C)C)NC(=O)[C@H](CO)NC(=O)[C@H](Cc1ccc(O)cc1)NC(=O)[C@H](CC(N)=O)NC(=O)[C@H](Cc1ccccc1)NC(=O)[C@H](CC(N)=O)NC(=O)[C@@H](N)CC(C)C)C(=O)N[C@@H](Cc1ccc(O)cc1)C(=O)N[C@H](C(=O)N[C@@H](CC(=O)O)C(=O)O)C(C)C` [LNFNYSLDKIYVD] (H-LNFNYSLDKIYVD-OH) came in with an equilibrium dissociation constant (Kd) of 240 ± 33 nM.
`CC[C@H](C)[C@H](NC(=O)[C@H](CCCCN)NC(=O)[C@H](CCCNC(=N)N)NC(=O)[C@H](CC(C)C)NC(=O)[C@H](CO)NC(=O)[C@H](Cc1ccc(O)cc1)NC(=O)[C@H](CC(N)=O)NC(=O)[C@H](Cc1ccccc1)NC(=O)[C@H](CC(N)=O)NC(=O)[C@@H](N)CC(C)C)C(=O)N[C@H](C(=O)N[C@H](C(=O)N[C@@H](CC(=O)O)C(=O)O)C(C)C)[C@@H](C)CC` [LNFNYSLRKIIVD] (H-LNFNYSLRKIIVD-OH) returned a Kd of 130 ± 19 nM.
Regarding `CC[C@H](C)[C@H](NC(=O)[C@H](CCCCN)NC(=O)[C@H](CC(=O)O)NC(=O)[C@H](CC(C)C)NC(=O)[C@H](Cc1ccc(O)cc1)NC(=O)[C@H](Cc1ccc(O)cc1)NC(=O)[C@H](CC(N)=O)NC(=O)[C@H](Cc1ccccc1)NC(=O)[C@H](CC(N)=O)NC(=O)[C@@H](N)CC(C)C)C(=O)N[C@H](C(=O)N[C@H](C(=O)N[C@@H](CC(=O)O)C(=O)O)C(C)C)[C@@H](C)CC` [LNFNYYLDKIIVD] (H-LNFNYYLDKIIVD-OH), the affinity, expressed as Kd, was 3400 nM.
`CC[C@H](C)[C@H](NC(=O)[C@H](CCCCN)NC(=O)[C@H](CC(=O)O)NC(=O)[C@H](CC(C)C)NC(=O)[C@H](CO)NC(=O)[C@H](Cc1ccc(O)cc1)NC(=O)[C@H](CC(N)=O)NC(=O)[C@H](Cc1ccccc1)NC(=O)[C@H](CC(N)=O)NC(=O)[C@@H](N)CC(C)C)C(=O)N[C@@H](CC(N)=O)C(=O)N[C@H](C(=O)N[C@@H](CC(=O)O)C(=O)O)C(C)C` [LNFNYSLDKINVD] (H-LNFNYSLDKINVD-OH) returned a dissociation constant (Kd) of 2600 nM.
As to `CC[C@H](C)[C@H](NC(=O)[C@H](CCCCN)NC(=O)[C@H](CC(=O)O)NC(=O)[C@H](CC(C)C)NC(=O)[C@H](CO)NC(=O)[C@H](Cc1ccc(O)cc1)NC(=O)[C@H](CC(N)=O)NC(=O)[C@H](Cc1ccccc1)NC(=O)[C@H](CC(N)=O)NC(=O)[C@@H](N)CC(C)C)C(=O)N[C@@H](Cc1c[nH]c2ccccc12)C(=O)N[C@H](C(=O)N[C@@H](CC(=O)O)C(=O)O)C(C)C` [LNFNYSLDKIWVD] (H-LNFNYSLDKIWVD-OH), the Kd was determined as 530 ± 50 nM.
Consider `CC[C@H](C)[C@H](NC(=O)[C@H](CCCCN)NC(=O)[C@H](CC(=O)O)NC(=O)[C@H](CC(C)C)NC(=O)[C@H](CO)NC(=O)[C@H](Cc1ccc(O)cc1)NC(=O)[C@H](CC(N)=O)NC(=O)[C@H](Cc1ccccc1)NC(=O)[C@H](CC(N)=O)NC(=O)[C@@H](N)CC(C)C)C(=O)N[C@@H](CCCNC(=N)N)C(=O)N[C@H](C(=O)N[C@@H](CC(=O)O)C(=O)O)C(C)C` [LNFNYSLDKIRVD] (H-LNFNYSLDKIRVD-OH), for which the Kd came to 6700 nM.
Molecule `CC[C@H](C)[C@H](NC(=O)[C@H](C)NC(=O)[C@H](CC(=O)O)NC(=O)[C@H](CC(C)C)NC(=O)[C@H](CO)NC(=O)[C@H](Cc1ccc(O)cc1)NC(=O)[C@H](CC(N)=O)NC(=O)[C@H](Cc1ccccc1)NC(=O)[C@H](CC(N)=O)NC(=O)[C@@H](N)CC(C)C)C(=O)N[C@H](C(=O)N[C@H](C(=O)N[C@@H](CC(=O)O)C(=O)O)C(C)C)[C@@H](C)CC` [LNFNYSLDAIIVD] (H-LNFNYSLDAIIVD-OH) returned a Kd of 65 ± 20 nM.
Molecule `CC[C@H](C)[C@H](NC(=O)[C@H](CCCCN)NC(=O)[C@H](Cc1c[nH]cn1)NC(=O)[C@H](CC(C)C)NC(=O)[C@H](CO)NC(=O)[C@H](Cc1ccc(O)cc1)NC(=O)[C@H](CC(N)=O)NC(=O)[C@H](Cc1ccccc1)NC(=O)[C@H](CC(N)=O)NC(=O)[C@@H](N)CC(C)C)C(=O)N[C@H](C(=O)N[C@H](C(=O)N[C@@H](CC(=O)O)C(=O)O)C(C)C)[C@@H](C)CC` [LNFNYSLHKIIVD] (H-LNFNYSLHKIIVD-OH) showed a Kd of 87 ± 8 nM.
For `CC[C@H](C)[C@H](NC(=O)[C@@H](NC(=O)[C@@H]1CCCN1C(=O)[C@H](CC(=O)O)NC(=O)[C@H](CC(C)C)NC(=O)[C@H](CO)NC(=O)[C@H](Cc1ccc(O)cc1)NC(=O)[C@H](CC(N)=O)NC(=O)[C@H](Cc1ccccc1)NC(=O)[C@H](CC(N)=O)NC(=O)[C@@H](N)CC(C)C)[C@@H](C)CC)C(=O)N[C@H](C(=O)N[C@@H](CC(=O)O)C(=O)O)C(C)C` [LNFNYSLDPIIVD] (H-LNFNYSLDPIIVD-OH) the value was 36 ± 12 nM.
For `CC[C@H](C)[C@H](NC(=O)[C@H](CCCCN)NC(=O)[C@H](CC(=O)O)NC(=O)[C@H](CC(C)C)NC(=O)[C@H](CC(=O)O)NC(=O)[C@H](Cc1ccc(O)cc1)NC(=O)[C@H](CC(N)=O)NC(=O)[C@H](Cc1ccccc1)NC(=O)[C@H](CC(N)=O)NC(=O)[C@@H](N)CC(C)C)C(=O)N[C@H](C(=O)N[C@H](C(=O)N[C@@H](CC(=O)O)C(=O)O)C(C)C)[C@@H](C)CC` [LNFNYDLDKIIVD] (H-LNFNYDLDKIIVD-OH) the value was 1040 nM; for `CC[C@H](C)[C@H](NC(=O)[C@H](CCCCN)NC(=O)[C@H](CC(=O)O)NC(=O)[C@H](CC(C)C)NC(=O)[C@@H]1CCCN1C(=O)[C@H](Cc1ccc(O)cc1)NC(=O)[C@H](CC(N)=O)NC(=O)[C@H](Cc1ccccc1)NC(=O)[C@H](CC(N)=O)NC(=O)[C@@H](N)CC(C)C)C(=O)N[C@H](C(=O)N[C@H](C(=O)N[C@@H](CC(=O)O)C(=O)O)C(C)C)[C@@H](C)CC` [LNFNYPLDKIIVD] (H-LNFNYPLDKIIVD-OH), 290 ± 70 nM.
The molecule `CC[C@H](C)[C@H](NC(=O)[C@H](CCCCN)NC(=O)[C@H](CC(=O)O)NC(=O)[C@H](CC(C)C)NC(=O)[C@H](CO)NC(=O)[C@H](Cc1ccc(O)cc1)NC(=O)[C@H](CC(N)=O)NC(=O)[C@H](Cc1ccccc1)NC(=O)[C@H](CC(N)=O)NC(=O)[C@@H](N)CC(C)C)C(=O)N[C@@H](C)C(=O)N[C@H](C(=O)N[C@@H](CC(=O)O)C(=O)O)C(C)C` [LNFNYSLDKIAVD] (H-LNFNYSLDKIAVD-OH) showed a Kd of 940 ± 250 nM.
Turning to `CC[C@H](C)[C@H](NC(=O)[C@H](CCCCN)NC(=O)[C@H](CC(=O)O)NC(=O)[C@H](CC(C)C)NC(=O)[C@H](CCC(=O)O)NC(=O)[C@H](Cc1ccc(O)cc1)NC(=O)[C@H](CC(N)=O)NC(=O)[C@H](Cc1ccccc1)NC(=O)[C@H](CC(N)=O)NC(=O)[C@@H](N)CC(C)C)C(=O)N[C@H](C(=O)N[C@H](C(=O)N[C@@H](CC(=O)O)C(=O)O)C(C)C)[C@@H](C)CC` [LNFNYELDKIIVD] (H-LNFNYELDKIIVD-OH), the Kd amounted to 116000 nM.
Molecule `CC[C@H](C)[C@H](NC(=O)[C@H](CO)NC(=O)[C@H](CC(=O)O)NC(=O)[C@H](CC(C)C)NC(=O)[C@H](CO)NC(=O)[C@H](Cc1ccc(O)cc1)NC(=O)[C@H](CC(N)=O)NC(=O)[C@H](Cc1ccccc1)NC(=O)[C@H](CC(N)=O)NC(=O)[C@@H](N)CC(C)C)C(=O)N[C@H](C(=O)N[C@H](C(=O)N[C@@H](CC(=O)O)C(=O)O)C(C)C)[C@@H](C)CC` [LNFNYSLDSIIVD] (H-LNFNYSLDSIIVD-OH) yielded an equilibrium dissociation constant (Kd) of 110 ± 45 nM.
In the case of `CC[C@H](C)[C@H](NC(=O)[C@H](CCCCN)NC(=O)[C@@H]1CCCN1C(=O)[C@H](CC(C)C)NC(=O)[C@H](CO)NC(=O)[C@H](Cc1ccc(O)cc1)NC(=O)[C@H](CC(N)=O)NC(=O)[C@H](Cc1ccccc1)NC(=O)[C@H](CC(N)=O)NC(=O)[C@@H](N)CC(C)C)C(=O)N[C@H](C(=O)N[C@H](C(=O)N[C@@H](CC(=O)O)C(=O)O)C(C)C)[C@@H](C)CC` [LNFNYSLPKIIVD] (H-LNFNYSLPKIIVD-OH), the dissociation constant (Kd) came to 31 ± 2 nM.
Regarding `CC[C@H](C)[C@H](NC(=O)[C@H](Cc1ccccc1)NC(=O)[C@H](CC(=O)O)NC(=O)[C@H](CC(C)C)NC(=O)[C@H](CO)NC(=O)[C@H](Cc1ccc(O)cc1)NC(=O)[C@H](CC(N)=O)NC(=O)[C@H](Cc1ccccc1)NC(=O)[C@H](CC(N)=O)NC(=O)[C@@H](N)CC(C)C)C(=O)N[C@H](C(=O)N[C@H](C(=O)N[C@@H](CC(=O)O)C(=O)O)C(C)C)[C@@H](C)CC` [LNFNYSLDFIIVD] (H-LNFNYSLDFIIVD-OH), the equilibrium dissociation constant (Kd) is 28 ± 6 nM.
